# In patent publication US20230113037A1 (Bayer Aktiengesellschaft, priority 2019, published 2023):
# Read-outs that look alike come from different tables or passages of the source.
# Assays:
# AHR [1] = molecular target: T1, AHR (Mus musculus, UniProt P30561); test: In vitro assay 3: antagonism in mouse cell line (AHR transactivation, firefly luciferase reporter, kynurenic acid prestimulated); type: cell-based; conditions: 200 μM kynurenic acid, 20 hours, read-out: AHR Antagonism Mouse IC50
# T1 sequence (P30561 1-848 P471L/N533S/M589L): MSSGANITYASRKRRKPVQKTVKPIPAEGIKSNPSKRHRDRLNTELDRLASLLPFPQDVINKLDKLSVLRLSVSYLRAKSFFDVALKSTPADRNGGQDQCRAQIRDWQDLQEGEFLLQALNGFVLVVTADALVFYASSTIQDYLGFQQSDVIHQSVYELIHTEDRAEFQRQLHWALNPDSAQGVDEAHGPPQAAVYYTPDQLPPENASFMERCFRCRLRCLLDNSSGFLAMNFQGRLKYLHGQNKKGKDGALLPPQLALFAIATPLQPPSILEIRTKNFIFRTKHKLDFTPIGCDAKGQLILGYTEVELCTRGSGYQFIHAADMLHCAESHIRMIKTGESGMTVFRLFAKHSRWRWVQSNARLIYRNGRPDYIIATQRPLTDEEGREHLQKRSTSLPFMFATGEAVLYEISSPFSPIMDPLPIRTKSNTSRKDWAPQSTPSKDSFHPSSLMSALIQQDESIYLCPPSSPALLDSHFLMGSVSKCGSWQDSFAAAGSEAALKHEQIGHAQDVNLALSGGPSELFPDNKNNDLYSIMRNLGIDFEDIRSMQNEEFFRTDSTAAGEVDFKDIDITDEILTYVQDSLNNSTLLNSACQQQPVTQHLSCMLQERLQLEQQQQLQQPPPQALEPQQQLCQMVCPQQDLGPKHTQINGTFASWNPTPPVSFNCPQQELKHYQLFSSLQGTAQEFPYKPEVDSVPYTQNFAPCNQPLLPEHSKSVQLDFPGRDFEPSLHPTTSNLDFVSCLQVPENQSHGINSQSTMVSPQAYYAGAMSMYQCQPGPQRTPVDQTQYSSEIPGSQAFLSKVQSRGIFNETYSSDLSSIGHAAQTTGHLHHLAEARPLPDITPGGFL
# In short: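 Antagonism read as reduced firefly luciferase signal (SteadyGlo) from a stably transfected AHR/DRE reporter in a mouse line prestimulated with kynurenic acid. Data normalized to controls, the full-inhibition control being cells without kynurenic acid; multiple determinations given as average or median values.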
# AHR [2] = molecular target: T2, AHR (Homo sapiens, UniProt P35869); test: In vitro assay 1: antagonism in human cell line (AHR transactivation, firefly luciferase reporter, kynurenic acid prestimulated); type: cell-based; conditions: AHR Antagonism Human IC50 [M]
# T2 construct: U87 MG glioblastoma cells (ATCC #HTB-14) endogenously expressing AHR; endogenous in cells; host or cells: U87 MG glioblastoma cells (ATCC #HTB-14)
# T2 sequence (P35869 11-848): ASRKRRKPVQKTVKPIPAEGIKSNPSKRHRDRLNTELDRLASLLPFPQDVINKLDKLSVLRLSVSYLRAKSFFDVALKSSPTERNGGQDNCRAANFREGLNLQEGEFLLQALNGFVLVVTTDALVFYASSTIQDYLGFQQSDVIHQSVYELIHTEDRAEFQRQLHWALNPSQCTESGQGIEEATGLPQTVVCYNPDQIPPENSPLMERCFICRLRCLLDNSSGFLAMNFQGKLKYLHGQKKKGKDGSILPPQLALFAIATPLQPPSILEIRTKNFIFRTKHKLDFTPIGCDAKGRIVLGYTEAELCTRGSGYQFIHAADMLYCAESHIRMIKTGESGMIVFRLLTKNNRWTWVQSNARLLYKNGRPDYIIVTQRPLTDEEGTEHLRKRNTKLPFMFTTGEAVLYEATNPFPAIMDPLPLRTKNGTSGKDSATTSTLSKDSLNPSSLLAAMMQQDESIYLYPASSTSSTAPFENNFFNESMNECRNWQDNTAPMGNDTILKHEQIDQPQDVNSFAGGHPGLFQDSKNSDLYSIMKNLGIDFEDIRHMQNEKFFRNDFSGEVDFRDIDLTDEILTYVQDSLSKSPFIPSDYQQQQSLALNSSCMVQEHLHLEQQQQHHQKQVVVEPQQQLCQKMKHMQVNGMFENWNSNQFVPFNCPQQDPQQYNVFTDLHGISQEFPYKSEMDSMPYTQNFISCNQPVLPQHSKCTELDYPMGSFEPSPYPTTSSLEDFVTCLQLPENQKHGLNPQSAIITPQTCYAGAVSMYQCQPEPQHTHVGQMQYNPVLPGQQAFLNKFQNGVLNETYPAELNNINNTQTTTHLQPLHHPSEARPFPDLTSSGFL
# In short: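 Antagonism is measured against kynurenic acid prestimulation in U87 MG glioblastoma cells carrying stable DRE-luciferase and Renilla reporters. Positive inhibition control: 150 μM kynurenic acid with 5 μM staurosporine. Values are normalized to controls; repeats are averaged or given as medians.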
# [3] = Hepa 1c1c7 cells, firefly luciferase reporter
Structure (SMILES),IC50 (AHR [1]; mouse Hepa 1c1c7 cells) [nM],IC50 (AHR [2]) [M],IC50 (AHR [1]; [3]) [nM],IC50 (AHR [2]; firefly luciferase reporter) [M]
"Nc1ccc(-c2nc3c4ccccc4nc(N[C@@H]4CCCCNC4=O)n3n2)cn1 [Example 637, (3R)-3-{[2-(6-aminopyridin-3-yl)[1,2,4]triazolo[1,5-c]quinazolin-5-yl]amino}azepan-2-one]",21.4,1.15e-08,–,–
"CC(C)c1noc(-c2nc3c4ccccc4nc(N[C@@H]4CCCCNC4=O)n3n2)n1 [Example 133, (3R)-3-({2-[3-(propan-2-yl)-1,2,4-oxadiazol-5-yl][1,2,4]triazolo[1,5-c]quinazolin-5-yl}amino)azepan-2-one]",32.7,1.92e-08,–,–
"CCCCNC(=O)CNc1nc2ccccc2c2nc(-c3ccncc3F)nn12 [Example 485, N-butyl-N^2-[2-(3-fluoropyridin-4-yl)[1,2,4]triazolo[1,5-c]quinazolin-5-yl]glycinamide]",10100,7.54e-07,–,–
"CCC[C@@H](Nc1nc2ccccc2c2nc(-c3cscc3OC)nn12)C(=O)NC [Example 339, N^2-[2-(4-methoxythiophen-3-yl)[1,2,4]triazolo[1,5-c]quinazolin-5-yl]-N-methyl-D-norvalinamide]",169,3.37e-07,–,–
"Cc1ccccc1-c1nc2c3ccccc3nc(NC3CCNC3=O)n2n1 (single isomer, unassigned) [Example 50, 3-{[2-(2-methylphenyl)[1,2,4]triazolo[1,5-c]quinazolin-5-yl]amino}pyrrolidin-2-one]",20.4,1.06e-08,–,–
COc1ccc(-c2nc3c4cccc(C)c4nc(N[C@H]4CCCCNC4=O)n3n2)cc1 [Example 144],62.7,> 2e-06,–,–
"COc1cccc(-c2nc3c4ccccc4nc(NC4CCCNC4=O)n3n2)c1 (single isomer, unassigned) [Example 118, 3-{[2-(3-methoxyphenyl)[1,2,4]triazolo[1,5-c]quinazolin-5-yl]amino}piperidin-2-one]",40.2,6.43e-08,–,–
"CC(C)n1cc(-c2nc3c4cccc(S(C)(=O)=O)c4nc(N[C@@H]4CNCCNC4=O)n3n2)cn1 [Example 944, (6R)-6-({7-(methanesulfonyl)-2-[1-(propan-2-yl)-1H-pyrazol-4-yl][1,2,4]triazolo[1,5-c]quinazolin-5-yl}amino)-1,4-diazepan-5-one]",–,–,4620,1.67e-06
"CCNC(=O)[C@@H](CC)Nc1nc2c(Br)cccc2c2nc(-c3ccc(Cl)cc3OC(F)F)nn12 [Example 798, (2R)-2-({7-bromo-2-[4-chloro-2-(difluoromethoxy)phenyl][1,2,4]triazolo[1,5-c]quinazolin-5-yl}amino)-N-ethylbutanamide]",–,–,0.811,7.57e-10
"CC(C)n1cc(-c2nc3c4cccc(C5CC5)c4nc(N[C@@H]4CNCCNC4=O)n3n2)cn1 [Example 955, (6R)-6-({7-cyclopropyl-2-[1-(propan-2-yl)-1H-pyrazol-4-yl][1,2,4]triazolo[1,5-c]quinazolin-5-yl}amino)-1,4-diazepan-5-one]",–,–,452,5.57e-08
"Cn1cc(-c2nc3c4cccc(Br)c4nc(N[C@H]4CS(=O)(=O)CCNC4=O)n3n2)cn1 [Example 848, (6R)-6-{[7-bromo-2-(1-methyl-1H-pyrazol-4-yl)[1,2,4]triazolo[1,5-c]quinazolin-5-yl]amino}-1λ^6,4-thiazepane-1,1,5-trione]",–,–,197,1.69e-07
"COc1ccc(-c2nc3c4cccc(S(=O)(=O)C(C)C)c4nc(N[C@@H]4CNCCNC4=O)n3n2)cc1 [Example 941, (6R)-6-{[2-(4-methoxyphenyl)-7-(propan-2-sulfonyl)[1,2,4]triazolo[1,5-c]quinazolin-5-yl]amino}-1,4-diazepan-5-one]",–,–,67.5,3.61e-08
"CCS(=O)(=O)c1cccc2c1nc(N[C@@H]1CNCCNC1=O)n1nc(-c3cnn(C)c3)nc21 [Example 942, (6R)-6-{[7-(ethanesulfonyl)-2-(1-methyl-1H-pyrazol-4-yl)[1,2,4]triazolo[1,5-c]quinazolin-5-yl]amino}-1,4-diazepan-5-one]",–,–,4750,7.67e-07

# The remaining molecules from weak to strong by IC50 (AHR [1]; mouse Hepa 1c1c7 cells), led by results:
IC50 (AHR [1]; mouse Hepa 1c1c7 cells) [nM],IC50 (AHR [2]) [M],IC50 (AHR [1]; [3]) [nM],IC50 (AHR [2]; firefly luciferase reporter) [M],Structure (SMILES)
14.6,7.24e-08,–,–,"CC[C@@H](Nc1nc2ccccc2c2nc(-c3cccc(C(F)(F)F)n3)nn12)C(N)=O [Example 371, (2R)-2-({2-[6-(trifluoromethyl)pyridin-2-yl][1,2,4]triazolo[1,5-c]quinazolin-5-yl}amino)butanamide]"
9.58,3.09e-08,–,–,"O=C1NCCCC[C@H]1Nc1nc2ccccc2c2nc(-c3nc(C(F)(F)F)no3)nn12 [Example 136, (3R)-3-({2-[3-(trifluoromethyl)-1,2,4-oxadiazol-5-yl][1,2,4]triazolo[1,5-c]quinazolin-5-yl}amino)azepan-2-one]"
6.55,6.81e-09,–,–,"COc1ccc(-c2nc3c4c(C5CC5)cccc4nc(N[C@@H]4CCCCNC4=O)n3n2)cc1 [Example 176, (3R)-3-{[10-cyclopropyl-2-(4-methoxyphenyl)[1,2,4]triazolo[1,5-c]quinazolin-5-yl]amino}azepan-2-one]"
4.56,2.68e-09,–,–,"CCOc1cccc2c1nc(N[C@@H]1CCCCNC1=O)n1nc(-c3ccc(OC)cc3)nc21 [Example 667, (3R)-3-{[7-ethoxy-2-(4-methoxyphenyl)[1,2,4]triazolo[1,5-c]quinazolin-5-yl]amino}azepan-2-one]"
3.96,1.41e-09,–,–,"CCn1cc(-c2nc3c4cccc(C#N)c4nc(N[C@@H]4CCCCNC4=O)n3n2)c(C)n1 [Example 763, 2-(1-ethyl-3-methyl-1H-pyrazol-4-yl)-5-{[(3R)-2-oxoazepan-3-yl]amino}[1,2,4]triazolo[1,5-c]quinazoline-7-carbonitrile]"
3.59,4.13e-08,–,–,Cc1sccc1-c1nc2c3ccccc3nc(N[C@@H]3CCN(C)C3=O)n2n1 [Example 350]
2.57,5.13e-09,–,–,"O=C1NCCCC[C@H]1Nc1nc2ccccc2c2nc(-c3cnn(C4CC4)c3)nn12 [Example 535, (3R)-3-{[2-(1-cyclopropyl-1H-pyrazol-4-yl)[1,2,4]triazolo[1,5-c]quinazolin-5-yl]amino}azepan-2-one]"
2.43,1.12e-08,–,–,"COC(=O)[C@H](Nc1nc2ccccc2c2nc(-c3cccc(OC)c3)nn12)C(C)C [Example 104, methyl N-[2-(3-methoxyphenyl)[1,2,4]triazolo[1,5-c]quinazolin-5-yl]-D-valinate]"
2.17,3.29e-09,–,–,"O=C1NCCNC[C@H]1Nc1nc2c(Br)cccc2c2nc(-c3ccccc3OC(F)(F)F)nn12 [Example 266, (6R)-6-({7-bromo-2-[2-(trifluoromethoxy)phenyl][1,2,4]triazolo[1,5-c]quinazolin-5-yl}amino)-1,4-diazepan-5-one]"
1.82,5.71e-09,–,–,"N#Cc1cccc2nc(N[C@@H]3CCCCNC3=O)n3nc(-c4ccc(F)cc4)nc3c12 [Example 248, 2-(4-fluorophenyl)-5-{[(3R)-2-oxoazepan-3-yl]amino}[1,2,4]triazolo[1,5-c]quinazoline-10-carbonitrile]"
